The values that follow come from ChEMBL document CHEMBL1136820, “The role of 2',3'-unsaturation on the antiviral activity of anti-HIV nucleosides against 3TC-resistant mutant (M184V)” (Bioorg Med Chem Lett, 2003).

Experiment [1] relates to Human immunodeficiency virus type 1 reverse transcriptase (Human immunodeficiency virus 1), Q72547 [M184V]. Briefly: In vitro antiviral activity against HIV-1 Reverse transcriptase M184V mutant.
The target in experiment [2] is Human immunodeficiency virus type 1 reverse transcriptase (Human immunodeficiency virus 1) (UniProt Q72547). The experiment in a line: In vitro antiviral activity against HIV-1 Reverse transcriptase wild type.
The test system of experiment [3] is HIV-1 reverse transcriptase (Human immunodeficiency virus 1). Briefly: Ratio for inhibition of HIV-1 RT to that of type and HIV-1 RT M184V mutant was determined.

Regarding `Nc1ccn([C@@H]2O[C@H](CO)C=C2F)c(=O)n1`, the EC90 amounted to 1.8 µM in experiment [1] and 8 µM in experiment [2]. Moreover, in experiment [3], the FI was determined as 0.23.
For the molecule `Nc1nc(=O)n([C@@H]2C=C[C@H](CO)O2)cc1F`, the FI in experiment [3] is 0.8.
In the case of `Nc1ccn(C2SC(CO)C=C2F)c(=O)n1` (configuration not stated), the EC90 came to 125 µM in experiment [1] and 5 µM in experiment [2]. Moreover, the FI in experiment [3] is 25.
